Experimental data taken from ChEMBL document CHEMBL5038589, “Design, Synthesis, and Structure-Activity Relationship of N-Aryl-N'-(thiophen-2-yl)thiourea Derivatives as Novel and Specific Human TLR1/2 Agonists for Potential Cancer Immunotherapy” (J Med Chem, 2021).
The source made the active and inactive calls. The rule behind the calls is not given here.

Experiments:
[1] = Selectivity index, ratio of CC50 for HEK-Blue TLR2 cells to EC50 for agonist activity at TLR2 in HEK-Blue TLR2 cells; format: functional
[2] = test system: Monocyte; experiment: Immunostimulatory activity in human monocytes assessed as fold increase at 0.1 to 10 uM incubated for 48 hrs by flow cytometry analysis; format: functional; details: dose 0.1-10 µM
[3] = biological target: Toll-like receptor 7 (Homo sapiens) (UniProt Q9NYK1); experiment: Agonist activity at TLR7 in HEK-Blue hTLR7 cells at 0.1 to 100 uM incubated for 24 hrs by Quanti-Blue based SEAP assay; format: cell-based; details: dose 0.1-100 µM
[4] = Stability in mouse liver microsomes assessed as half life at 250 uM in presence of NADPH by HPLC-MS analysis; format: ADME
[5] = biological target: Toll-like receptor 3 (Homo sapiens) (UniProt O15455); experiment: Agonist activity at TLR3 in HEK-Blue hTLR3 cells at 0.1 to 100 uM incubated for 24 hrs by Quanti-Blue based SEAP assay; format: cell-based; details: dose 0.1-100 µM
[6] = test system: THP-1; experiment: Upregulation of MyD88 expression in human PMA-differentiated THP-1 cells assessed as induction of p65 phosphorylation at 10 uM incubated for 2 hrs by Western blot analysis; format: functional, cell-based
[7] = test system: THP-1; experiment: Induction of ERK phosphorylation in human PMA-differentiated THP-1 cells at 10 uM incubated for 2 hrs by Western blot analysis; format: functional, cell-based
[8] = biological target: Toll-like receptor 8 (Homo sapiens) (UniProt Q9NR97); experiment: Agonist activity at TLR8 in HEK-Blue hTLR8 cells at 0.1 to 100 uM incubated for 24 hrs by Quanti-Blue based SEAP assay; format: cell-based; details: dose 0.1-100 µM
[9] = test system: MCF7; experiment: Induction of apoptosis in human MCF7 cells upto 100 uM by microplate reader analysis; format: functional, cell-based; details: dose microM <=100
[10] = test system: Macrophage; experiment: Induction of TNFalpha secretion in TLR2-/- C57BL/6 mouse peritoneal macrophages at 0.01 to 10 uM incubated for 24 hrs by ELISA method; format: functional, cell-based; details: dose 0.01-10 µM
[11] = biological target: Toll-like receptor 6 (Homo sapiens) (UniProt Q9Y2C9); experiment: Agonist activity at TLR6 in HEK-Blue hTLR2 cells at 0.2 uM incubated for 24 hrs in presence of anti-hTLR6-IgA antibodies measured by Quanti-Blue based SEAP assay; format: cell-based
[12] = test system: B cell; experiment: Immunostimulatory activity in human B cells assessed as fold increase at 0.1 to 10 uM incubated for 48 hrs by flow cytometry analysis; format: functional; details: dose 0.1-10 µM
[13] = biological target: T1, Toll-like receptor 2 (Homo sapiens, UniProt O60603); experiment: Agonist activity at TLR2 in HEK-Blue cells assessed as fold increase in activity 0.0015 to 10 uM incubated for 24 hrs by Quanti-Blue based SEAP assay; format: cell-based; details: HEK-Blue hTLR2, dose 0.0015-10 µM
[14] = biological target: Toll-like receptor 4 (Homo sapiens) (UniProt O00206); experiment: Agonist activity at TLR4 in HEK-Blue hTLR4 cells at 0.1 to 100 uM incubated for 24 hrs by Quanti-Blue based SEAP assay; format: cell-based; details: dose 0.1-100 µM
[15] = biological target: Toll-like receptor 5 (Homo sapiens) (UniProt O60602); experiment: Agonist activity at TLR5 in HEK-Blue hTLR5 cells at 0.1 to 100 uM incubated for 24 hrs by Quanti-Blue based SEAP assay; format: cell-based; details: dose 0.1-100 µM
[16] = test system: Natural killer cell; experiment: Immunostimulatory activity in human NK cells assessed as fold increase at 0.1 to 10 uM incubated for 48 hrs by flow cytometry analysis; format: functional; details: dose 0.1-10 µM
[17] = test system: HCT-116; experiment: Induction of apoptosis in human HCT-116 cells upto 100 uM by microplate reader analysis; format: functional, cell-based; details: dose microM <=100
[18] = test system: CD4+ve Th; experiment: Immunostimulatory activity in human CD4+ T cells at 0.1 to 10 uM incubated for 48 hrs by flow cytometry analysis; format: functional, cell-based; details: dose 0.1-10 µM
[19] = test system: RAW264.7; experiment: Induction of nitric oxide release in mouse RAW264.7 cells at 0.01 to 10 uM incubated for 24 hrs by Griess reagent based assay; format: functional, cell-based; details: dose 0.01-10 µM
[20] = test system: THP-1; experiment: Induction of TNFalpha secretion in human PMA-differentiated THP-1 cells incubated for 24 hrs by ELISA method; format: functional, cell-based; details: dose 0.01-10 µM
[21] = biological target: T1, Toll-like receptor 2; experiment: Agonist activity at TLR2 in HEK-Blue hTLR2 cells at 0.2 uM incubated for 24 hrs in presence of anti-hTLR2-IgA antibodies measured by Quanti-Blue based SEAP assay; format: cell-based; details: filed as agonist
[22] = test system: CD3-positive T cell; experiment: Immunostimulatory activity in mouse C57 spleen CD3+ T cells in assessed as fold increase at 0.1 to 10 uM incubated for 48 hrs by flow cytometry analysis; format: functional, cell-based; details: dose 0.1-10 µM
[23] = test system: THP-1; experiment: Induction of IL-1beta secretion in human PMA-differentiated THP-1 cells incubated for 24 hrs by ELISA method; format: functional, cell-based; details: dose 0.01-10 µM
[24] = test system: THP-1; experiment: Upregulation of MyD88 expression in human PMA-differentiated THP-1 cells assessed as induction of IKKbeta phosphorylation at 10 uM incubated for 2 hrs by Western blot analysis; format: functional, cell-based
[25] = test system: HCT-116; experiment: Induction of apoptosis in human HCT-116 cells cocultured with PMA-differentiated THP-1 cells assessed as increase in annexin-V positive cells at 10 uM measured after 24 hrs by annexin V-FITC/PI staining based flow cytometry (reference value: 16.23%); format: functional
[26] = test system: THP-1; experiment: Upregulation of TLR6 expression in human THP-1 cells at 20 uM by immunoprecipitation method; format: functional, cell-based
[27] = test system: THP-1; experiment: Induction of TNFalpha secretion in TLR2 knock down human THP-1 cells at 20 to 40 uM incubated for 24 hrs by ELISA method; format: functional, cell-based; details: dose 20-40 µM
[28] = biological target: T1, Toll-like receptor 2; experiment: Binding affinity to recombinant human TLR2 expressed in H5 cells by surface plasmon resonance method
[29] = test system: THP-1; experiment: Upregulation of MyD88 expression in human PMA-differentiated THP-1 cells assessed as induction of p38 phosphorylation at 10 uM incubated for 2 hrs by Western blot analysis; format: functional, cell-based
[30] = biological target: Toll-like receptor 1/2 (Homo sapiens) (UniProt O60603+Q15399); experiment: Agonist activity at TLR1/TLR2 in human THP-1 cells assessed as induction of TLR1/TLR2 dimerization at 20 uM incubated for 12 hrs by coimmunoprecipitation method; format: cell-based; details: filed as agonist
[31] = test system: Macrophage; experiment: Induction of TNFalpha secretion in wild-type C57BL/6 mouse peritoneal macrophages at 0.01 to 10 uM incubated for 24 hrs by ELISA method; format: functional, cell-based; details: dose 0.01-10 µM
[32] = test system: MCF7; experiment: Induction of apoptosis in human MCF7 cells cocultured with PMA-differentiated THP-1 cells assessed as late apoptotic cells at 10 uM measured after 24 hrs by annexin V-FITC/PI staining based flow cytometry (reference value: 5.41 %); format: functional
[33] = test system: THP-1; experiment: Upregulation of MyD88 expression in human PMA-differentiated THP-1 cells in presence of T6167923 at 10 uM incubated for 2 hrs by western blot analysis; format: functional, cell-based
[34] = test system: HCT-116; experiment: Induction of apoptosis in human HCT-116 cells cocultured with PMA-differentiated THP-1 cells assessed as late apoptotic cells at 10 uM measured after 24 hrs using annexin V-FITC/PI staining based flow cytometry; format: functional
[35] = test system: THP-1; experiment: Upregulation of MyD88 expression in human PMA-differentiated THP-1 cells assessed as induction of IKKalpha phosphorylation at 10 uM incubated for 2 hrs by Western blot analysis; format: functional, cell-based

T1 sequence (O60603 whole entry): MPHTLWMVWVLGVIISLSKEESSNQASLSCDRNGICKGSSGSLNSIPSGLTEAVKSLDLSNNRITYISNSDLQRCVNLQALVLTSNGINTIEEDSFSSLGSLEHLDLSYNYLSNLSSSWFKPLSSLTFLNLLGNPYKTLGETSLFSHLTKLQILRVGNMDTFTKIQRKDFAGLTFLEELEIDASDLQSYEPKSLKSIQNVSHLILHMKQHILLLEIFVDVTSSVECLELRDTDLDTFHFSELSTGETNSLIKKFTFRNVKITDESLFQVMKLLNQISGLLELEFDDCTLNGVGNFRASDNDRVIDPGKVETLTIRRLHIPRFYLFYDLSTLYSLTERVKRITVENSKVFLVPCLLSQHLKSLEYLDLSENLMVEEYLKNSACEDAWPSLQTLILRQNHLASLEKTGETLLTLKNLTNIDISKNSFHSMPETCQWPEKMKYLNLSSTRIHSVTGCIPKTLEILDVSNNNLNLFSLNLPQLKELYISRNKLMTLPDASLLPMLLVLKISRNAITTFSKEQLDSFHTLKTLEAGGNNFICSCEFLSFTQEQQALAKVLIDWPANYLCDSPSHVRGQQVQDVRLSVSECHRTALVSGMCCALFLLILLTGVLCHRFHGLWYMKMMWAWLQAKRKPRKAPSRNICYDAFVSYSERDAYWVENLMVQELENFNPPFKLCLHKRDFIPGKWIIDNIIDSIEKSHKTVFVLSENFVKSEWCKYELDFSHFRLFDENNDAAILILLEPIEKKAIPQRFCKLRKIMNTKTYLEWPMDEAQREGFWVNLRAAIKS
Toll-like receptor 6 (Homo sapiens), sequence (Q9Y2C9 whole entry): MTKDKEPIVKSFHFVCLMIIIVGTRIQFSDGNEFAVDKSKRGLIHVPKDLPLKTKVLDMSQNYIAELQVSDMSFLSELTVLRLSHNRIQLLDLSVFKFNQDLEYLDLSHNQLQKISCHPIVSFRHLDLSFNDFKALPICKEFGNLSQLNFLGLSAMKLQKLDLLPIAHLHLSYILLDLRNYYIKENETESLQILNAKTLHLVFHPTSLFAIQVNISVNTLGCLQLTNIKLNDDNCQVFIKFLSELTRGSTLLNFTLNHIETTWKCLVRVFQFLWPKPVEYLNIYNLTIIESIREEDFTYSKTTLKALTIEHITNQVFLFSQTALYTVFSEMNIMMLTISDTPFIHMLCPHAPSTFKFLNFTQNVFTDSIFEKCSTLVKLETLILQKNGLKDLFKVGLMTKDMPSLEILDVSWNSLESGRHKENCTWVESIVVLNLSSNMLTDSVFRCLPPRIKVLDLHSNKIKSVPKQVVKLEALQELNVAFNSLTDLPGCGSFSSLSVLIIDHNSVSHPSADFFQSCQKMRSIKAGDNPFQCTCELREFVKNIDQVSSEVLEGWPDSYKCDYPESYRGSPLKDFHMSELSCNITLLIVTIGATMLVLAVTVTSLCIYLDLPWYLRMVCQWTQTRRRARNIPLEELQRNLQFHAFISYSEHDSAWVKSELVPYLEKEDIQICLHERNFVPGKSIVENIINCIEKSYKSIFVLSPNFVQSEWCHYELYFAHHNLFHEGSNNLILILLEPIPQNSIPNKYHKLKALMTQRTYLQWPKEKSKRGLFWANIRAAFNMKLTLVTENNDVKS
Toll-like receptor 7 (Homo sapiens), sequence (Q9NYK1 whole entry): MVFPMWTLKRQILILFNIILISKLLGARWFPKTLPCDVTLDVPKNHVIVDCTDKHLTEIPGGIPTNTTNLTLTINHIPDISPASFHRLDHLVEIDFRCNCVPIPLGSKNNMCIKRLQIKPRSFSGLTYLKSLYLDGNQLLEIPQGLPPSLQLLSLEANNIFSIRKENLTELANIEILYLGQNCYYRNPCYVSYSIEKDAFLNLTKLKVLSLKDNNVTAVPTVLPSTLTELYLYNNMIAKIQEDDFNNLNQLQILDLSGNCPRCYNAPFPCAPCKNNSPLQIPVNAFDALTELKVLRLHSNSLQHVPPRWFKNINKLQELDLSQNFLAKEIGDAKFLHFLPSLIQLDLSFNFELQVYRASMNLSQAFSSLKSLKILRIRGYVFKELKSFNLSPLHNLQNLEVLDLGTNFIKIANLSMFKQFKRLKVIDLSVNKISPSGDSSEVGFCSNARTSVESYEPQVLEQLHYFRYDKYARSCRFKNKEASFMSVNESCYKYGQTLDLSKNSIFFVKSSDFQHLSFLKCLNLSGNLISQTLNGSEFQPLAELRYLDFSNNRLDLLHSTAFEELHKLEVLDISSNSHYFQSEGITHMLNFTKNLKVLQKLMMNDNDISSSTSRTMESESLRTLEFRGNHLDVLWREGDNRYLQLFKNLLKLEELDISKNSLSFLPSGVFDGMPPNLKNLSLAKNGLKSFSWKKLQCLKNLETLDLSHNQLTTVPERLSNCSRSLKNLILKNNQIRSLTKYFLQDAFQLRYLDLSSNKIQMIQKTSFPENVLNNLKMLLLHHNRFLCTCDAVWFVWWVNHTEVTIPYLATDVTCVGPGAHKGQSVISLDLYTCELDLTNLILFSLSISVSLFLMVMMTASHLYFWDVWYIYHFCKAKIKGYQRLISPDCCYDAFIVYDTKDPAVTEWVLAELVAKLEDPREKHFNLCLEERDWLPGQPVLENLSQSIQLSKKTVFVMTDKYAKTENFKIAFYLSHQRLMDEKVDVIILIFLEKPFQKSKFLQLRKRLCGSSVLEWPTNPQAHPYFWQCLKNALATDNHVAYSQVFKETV
Toll-like receptor 4 (Homo sapiens), sequence (O00206 whole entry): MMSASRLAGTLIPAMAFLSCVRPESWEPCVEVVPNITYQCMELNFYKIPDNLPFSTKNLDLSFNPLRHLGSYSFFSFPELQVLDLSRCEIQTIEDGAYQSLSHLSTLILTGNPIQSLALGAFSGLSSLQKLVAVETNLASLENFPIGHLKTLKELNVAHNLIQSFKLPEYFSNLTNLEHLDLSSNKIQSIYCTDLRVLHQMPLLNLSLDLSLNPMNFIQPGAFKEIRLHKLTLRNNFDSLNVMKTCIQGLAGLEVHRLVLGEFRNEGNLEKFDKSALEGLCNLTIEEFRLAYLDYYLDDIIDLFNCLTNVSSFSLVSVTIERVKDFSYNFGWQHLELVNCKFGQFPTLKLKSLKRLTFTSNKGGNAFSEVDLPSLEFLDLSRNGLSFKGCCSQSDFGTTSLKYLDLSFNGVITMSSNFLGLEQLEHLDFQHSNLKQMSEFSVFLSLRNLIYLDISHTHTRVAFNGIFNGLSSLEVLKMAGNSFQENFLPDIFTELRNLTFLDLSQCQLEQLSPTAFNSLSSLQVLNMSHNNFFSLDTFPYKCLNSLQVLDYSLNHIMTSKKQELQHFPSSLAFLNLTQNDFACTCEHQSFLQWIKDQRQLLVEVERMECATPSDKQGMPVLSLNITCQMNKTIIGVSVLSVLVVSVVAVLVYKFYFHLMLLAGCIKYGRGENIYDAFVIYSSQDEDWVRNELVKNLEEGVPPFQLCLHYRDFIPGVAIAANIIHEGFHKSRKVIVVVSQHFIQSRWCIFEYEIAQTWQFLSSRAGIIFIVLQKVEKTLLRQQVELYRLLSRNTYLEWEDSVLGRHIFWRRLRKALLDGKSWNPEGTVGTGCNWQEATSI
Toll-like receptor 8 (Homo sapiens), sequence (Q9NR97 whole entry): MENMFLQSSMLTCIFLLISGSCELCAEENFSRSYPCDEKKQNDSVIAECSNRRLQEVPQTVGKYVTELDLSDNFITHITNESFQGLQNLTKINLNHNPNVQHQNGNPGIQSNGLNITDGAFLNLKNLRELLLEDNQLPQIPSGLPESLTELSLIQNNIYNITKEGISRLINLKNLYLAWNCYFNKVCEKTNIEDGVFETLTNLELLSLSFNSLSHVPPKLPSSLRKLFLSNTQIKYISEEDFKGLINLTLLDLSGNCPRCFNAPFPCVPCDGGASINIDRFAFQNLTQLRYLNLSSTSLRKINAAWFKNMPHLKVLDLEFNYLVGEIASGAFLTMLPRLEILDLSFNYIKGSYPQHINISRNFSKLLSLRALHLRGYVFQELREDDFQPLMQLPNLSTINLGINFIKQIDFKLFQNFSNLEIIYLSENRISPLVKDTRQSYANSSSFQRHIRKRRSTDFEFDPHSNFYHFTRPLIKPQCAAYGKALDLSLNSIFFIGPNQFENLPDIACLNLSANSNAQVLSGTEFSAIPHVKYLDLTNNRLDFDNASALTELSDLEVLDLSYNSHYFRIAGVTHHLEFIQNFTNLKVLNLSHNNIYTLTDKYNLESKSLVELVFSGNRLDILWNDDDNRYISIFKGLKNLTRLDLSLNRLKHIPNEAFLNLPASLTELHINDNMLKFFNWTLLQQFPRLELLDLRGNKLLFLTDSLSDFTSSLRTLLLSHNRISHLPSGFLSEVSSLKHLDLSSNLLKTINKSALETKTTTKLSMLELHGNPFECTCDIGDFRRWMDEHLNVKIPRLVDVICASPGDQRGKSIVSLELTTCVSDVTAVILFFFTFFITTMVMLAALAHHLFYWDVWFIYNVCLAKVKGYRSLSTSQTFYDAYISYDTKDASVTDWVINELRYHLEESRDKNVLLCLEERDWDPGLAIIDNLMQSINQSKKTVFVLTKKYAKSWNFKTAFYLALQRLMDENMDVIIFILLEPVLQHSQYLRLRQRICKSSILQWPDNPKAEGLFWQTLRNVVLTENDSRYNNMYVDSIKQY

With CC(C)OC(=O)c1c(NC(=S)Nc2ccc(F)c3ccccc23)sc2c1CCC2 the “Ratio CC50/EC50” value [1] was greater than 3200, the “fold change (FC)” value [2] was 2 and the Activity [3] was “inactive”. The half-life at 250 µM [4] was 90 min, the Activity [5] was “inactive” and the Activity [6] was “Active”. For the same compound, the Activity [7] was “inactive”, the Activity [8] was “inactive” and the Activity [9] was “inactive”. The Activity [10] was “inactive”, the Activity [11] was “inactive” and the “fold change (FC)” value [12] was 7. The fold change (FC) [13] was 370, the Activity [14] was “inactive” and the Activity [15] was “inactive”. The “fold change (FC)” value [16] was 2, the Activity [17] was “inactive” and the Activity [18] was “Active”. The Activity [19] was “inactive”, the Activity [20] was “Dose-Dependent Effect” and the Activity [21] was “Active”. The Activity [22] was “inactive”, the Activity [23] was “Dose-Dependent Effect” and the Activity [24] was “Active”. For the same compound, the Activity [25] was 25.85%, the Activity [26] was “inactive” and the Activity [27] was “inactive”. The Kd [28] was 53 nM, the Activity [29] was “Active” and the Activity [30] was “Active”. For the same compound, the Activity [31] was “inactive”, the Activity [32] was 25% and the Activity [33] was “inactive”. For the same compound, the Activity [34] was 14.3% and the Activity [35] was “Active”.
